Results published in patent US20240197714A1, “METHODS FOR THE ADMINISTRATION OF CERTAIN VMAT2 INHIBITORS” (Neurocrine Biosciences, Inc., priority 2021, published 2024).
Like-named read-outs stand apart in the source and are kept apart here.

Assays:
[1] = Phase 1 open-label 2-sequence crossover study, single-dose pharmacokinetics of deutetrabenazine metabolites in healthy subjects; type: in vivo, human; details: for AUC / Cmax / half-life: both sexes, human, oral, plasma; for AUC / Cmax: healthy subjects, single dose deutetrabenazine 24 mg, % CV in parentheses; for half-life: 24 mg; for AUC (% of Total): share of total circulating DHTBZ exposure after single dose deutetrabenazine 24 mg
Procedure: A phase 1, open-label, 2-sequence crossover study was conducted to evaluate the HTBZ PK profile following administration of valbenazine (40 mg) or deutetrabenazine (24 mg) to a total of 18 healthy male and female subjects.
Subjects received a single dose of valbenazine 40 mg on Day 1 and a single dose of deutetrabenazine 24 mg on Day 16; or received a single dose of deutetrabenazine 24 mg on Day 1 and a single dose of valbenazine 40 mg on Day 16. Valbenazine 40 mg was administered as one 40 mg capsule and deutetrabenazine 24 mg was administered as two 12 mg tablets. Study drug was administered at approximately 0800 hours, approximately 30 minutes after the start of a standard breakfast.
PK parameters were determined using non-compartmental analysis with Phoenix WinNonlin 8.3 software. The in vitro pharmacology of the deuterated HTBZ metabolites was assessed using competitive radioligand binding assays.

[2] = AUSTEDO label; likely similar in CYP2D6 poor metabolizers; cited from earlier work
[3] = metabolites of AUSTEDO, approximate, read-out: half-life (converted)

[2H]C([2H])([2H])Oc1cc2c(cc1OC([2H])([2H])[2H])[C@H]1C[C@@H](O)[C@H](CC(C)C)CN1CC2 [[+]-α-DHTBZ]
AUC [1]: 11 ng·h/mL | Cmax [1]: 1.2 ng/mL | half-life [1, 3]: ~6 h | AUC (% of Total) [1]: 2%

[2H]C([2H])([2H])Oc1cc2c(cc1OC([2H])([2H])[2H])[C@H]1C[C@H](O)[C@H](CC(C)C)CN1CC2 [[+]-β-DHTBZ, (+)-β-3-isobutyl-9,10-di(methoxy-d3)-1,3,4,6,7,11b-hexahydro-2H-pyrido[2,1-a]isoquinolin-2-ol]
AUC [1]: 176 ng·h/mL | Cmax [1]: 20.4 ng/mL | half-life ([1]; after deutetrabenazine administration, read-out: mean half-life (converted)): 7.7 h | half-life [1, 3]: ~5 h | AUC (% of Total) [1]: 29%

[2H]C([2H])([2H])Oc1cc2c(cc1OC([2H])([2H])[2H])[C@@H]1C[C@H](O)[C@@H](CC(C)C)CN1CC2 [[−]-α-DHTBZ, (−)-α-3-isobutyl-9,10-di(methoxy-d3)-1,3,4,6,7, 11b-hexahydro-2H-pyrido[2,1-a]isoquinolin-2-ol]
AUC [1]: 396 ng·h/mL | Cmax [1]: 32.2 ng/mL | half-life [1, 3]: ~12 h | AUC (% of Total) [1]: 66%

[2H]C([2H])([2H])Oc1cc2c(cc1OC([2H])([2H])[2H])[C@@H]1C[C@@H](O)[C@@H](CC(C)C)CN1CC2 [[−]-β-DHTBZ, (−)-β-3-isobutyl-9,10-di(methoxy-d3)-1,3,4,6,7,11b-hexahydro-2H-pyrido[2,1-a]isoquinolin-2-ol]
AUC [1]: 15.8 ng·h/mL | Cmax [1]: 1.7 ng/mL | half-life [1, 3]: ~8 h | AUC (% of Total) [1]: 3%

COc1cc2c(cc1OC)[C@@H]1C[C@H](O)[C@@H](CC(C)C)CN1CC2 [α-DHTBZ]
increase of exposure when taking a strong CYP2D6 inhibitor [2]: approximately 3 fold
